From US20090291953A1, “PHAR[…] OF REBOXETINE” (Pfizer Inc, priority 2002, published 2009)

Tests used:
Assay type in all cases: physicochemical
[1] = Hygroscopicity test by Dynamic Moisture Sorption Gravimetry (DVS 1000); details: for Effects of moisture update: reversibility / retention of water uptake: DVS sorption/desorption, dependent on relative environmental humidity; for Water uptake %: 25° C.
Description: The water uptake of succinate and fumarate salts of S,S-reboxetine was investigated by submitting a sample of such salts to a hygroscopicity test by means of a DVS 1000 (SMS) according to the principle of Dynamic Moisture Sorption Gravimetry (DMSG). The apparatus is a “controlled atmosphere microbalance” where the weighed sample is exposed to programmed variations of the relative humidity (RH) at a constant and controlled temperature. The measured parameters (weight, time and RH), reported in Excel worksheets, allowed obtaining hygroscopicity curves over the tested RH range. Multiple sorption/desorption cycles between 0% and 90% RH were performed at 25° C. Progressive variations of RH were of 10%; they were operated by the software at the equilibration of the sample weight. This condition was defined at a constant rate of percent weight variation 0.005%/min (average of 5 minutes survey). The experimental results were reported in the DVS Isotherm Reports and Isotherm Plots.
The obtained results are summarized in the Table V, reporting the water uptake expressed as percent change in mass, and FIG. 4.

[2] = Thermogravimetric Analysis (TGA), volatile content
Experimental: The volatile content measured by means of Thermogravimetric Analysis (TGA) was relevant: in fact, a weight loss of about 2% was detected upon heating showing a related thermal feature. Whereas for SS-reboxetine fumarate and succinate salts a negligible […] weight loss was measured.

[3] = DSC analyses on samples recovered after DVS tests; details: for DSC profile after equilibration at high humidity (DVS test method): maximum relative humidity of 90% at 25° C., equilibration up to 0.005%/min or no more than 360 minutes; for Modification of solid structure after DVS test (observed by DSC): tested sample after DVS sorption/desorption
Experimental: DSC analyses were carried out with a Perkin-Elmer DSC-7 apparatus. Aluminium DSC pans were loaded with about of 2 mg of sample. The temperature range of analysis was between 30° and 210° C. The samples were analyzed under nitrogen flow (to eliminate oxidative and pyrrolitic effects) at a heating rate of 10° C./min.
DSC analyses were executed as reported above also on the samples recovered after DVS tests, executed according to the DMSG principle. As shown below in FIG. 5, DSC profiles of SS-reboxetine succinate and fumarate salts were unchanged after equilibration at high humidity according to the DVS test method (maximum relative humidity of 90% at 25° C. and equilibration up to 0.005%/min or no more than 360 minutes).

[4] = listed as S,S-reboxetine mesylate

CCOc1ccccc1O[C@@H](c1ccccc1)[C@@H]1CNCCO1.O=C(O)/C=C/C(=O)O (single isomer, unassigned) [Fumarate salt, Reboxetine S,S Enantiomer Fumarate Salt]
Effects of moisture update: reversibility / retention of water uptake ([1]; Fumarate Salt): Reversible water
Effects of moisture update: reversibility / retention of water uptake ([1]; listed as fumarate salt, Fumarate Salt): reversible
Water uptake % ([1]; Relative Humidity 20%): 0.06%
Water uptake % ([1]; Relative Humidity 35%): 0.11%
Water uptake % ([1]; Relative Humidity 50%): 0.16%
Water uptake % ([1]; Relative Humidity 65%): 0.21%
Water uptake % ([1]; Relative Humidity 80%): 0.31%
Water uptake % ([1]; Relative Humidity 90%): 0.47%
Weight loss upon heating (TGA), in words [2]: negligible
DSC profile after equilibration at high humidity (DVS test method) [3]: unchanged

CCOc1ccccc1O[C@@H](c1ccccc1)[C@@H]1CNCCO1.O=C(O)CCC(=O)O (single isomer, unassigned) [Succinate salt, Reboxetine S,S Enantiomer Succinate Salt]
Effects of moisture update: reversibility / retention of water uptake ([1]; Succinate Salt): Reversible water
Effects of moisture update: reversibility / retention of water uptake ([1]; listed as succinate salt, Succinate Salt): reversible
Water uptake % ([1]; Relative Humidity 20%): 0.03%
Water uptake % ([1]; Relative Humidity 35%): 0.06%
Water uptake % ([1]; Relative Humidity 50%): 0.10%
Water uptake % ([1]; Relative Humidity 65%): 0.14%
Water uptake % ([1]; Relative Humidity 80%): 0.21%
Water uptake % ([1]; Relative Humidity 90%): 0.29%
Weight loss upon heating (TGA), in words [2]: negligible
DSC profile after equilibration at high humidity (DVS test method) [3]: unchanged

CCOc1ccccc1O[C@H](c1ccccc1)[C@H]1CNCCO1.CS(=O)(=O)O [Mesylate salt, S,S-reboxetine mesylate]
Effects of moisture update: reversibility / retention of water uptake [1]: Retention of water
Effects of moisture update: reversibility / retention of water uptake [1, 4]: only partially eliminated
Water uptake retained after re-equilibration ([1]; DVS, after re-equilibration): about 4%
Amount of water adsorbed (uptake) in hygroscopicity test ([1]; DVS, at 90% RH printed for mesylate salt): up to 9%
Desorption Cycle Water content % (percent change in mass) ([1]; Relative Humidity 0%): 4.3%
Sorption Cycle Water content % (percent change in mass) ([1]; Relative Humidity 0%): 0.0%
Desorption Cycle Water content % (percent change in mass) ([1]; Relative Humidity 20%): 4.5%
Sorption Cycle Water content % (percent change in mass) ([1]; Relative Humidity 20%): 0.5%
Desorption Cycle Water content % (percent change in mass) ([1]; Relative Humidity 35%): 4.6%
Sorption Cycle Water content % (percent change in mass) ([1]; Relative Humidity 35%): 0.6%
Desorption Cycle Water content % (percent change in mass) ([1]; Relative Humidity 50%): 4.6%
Sorption Cycle Water content % (percent change in mass) ([1]; Relative Humidity 50%): 0.7%
Desorption Cycle Water content % (percent change in mass) ([1]; Relative Humidity 65%): 4.6%
Sorption Cycle Water content % (percent change in mass) ([1]; Relative Humidity 65%): 0.9%
Desorption Cycle Water content % (percent change in mass) ([1]; Relative Humidity 80%): 4.7%
Sorption Cycle Water content % (percent change in mass) ([1]; Relative Humidity 80%): 4.5%
Desorption Cycle Water content % (percent change in mass) ([1]; Relative Humidity 90%): 8.7%
Sorption Cycle Water content % (percent change in mass) ([1]; Relative Humidity 90%): 8.7%
Effects of moisture update: change in crystalline form ([1]; after water uptake in DVS test): Irreversible change
Weight loss upon heating (volatile content, TGA) [2]: about 2%
DSC profile after equilibration at high humidity (DVS test method) [3]: complete destructuration
Modification of solid structure after DVS test (observed by DSC) [3, 4]: solid state modification was observed
Modification of solid structure after DVS test (observed by DSC) ([3]; listed as mesylate salt): loss of crystallinity
